This note sets out measurements from ChEMBL document CHEMBL1201862, “PubChem BioAssay data set” (2004).

In test [1] the test system is HEK293. The experiment in a line: cells. It is filed as functional, cell-based. The conditions noted are these: Homo sapiens.
Test [2] has as its system HEK293. The experiment in a line: cells. It counts as functional, cell-based. The conditions noted are these: Homo sapiens. This is another data set of the same source.
For test [3], the target named is G-protein coupled receptor 55 (Homo sapiens, UniProt Q9Y2T6). The experiment in a line: GPR55 antagonists, SAR follow-up, counter-screen for GPR35 antagonist project, imaging, image-based (AID 2397). It is filed as functional.
A further test concerns INS1. The experiment in a line: beta cell apoptosis inhibitors, cytokine rescue, dose response, luminescence, retest (AID 449756).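 Also: cell death triggered by IL-1 beta plus TNF-alpha plus IFN-gamma mixture; protective hits raise ATP signal compared with cytokine alone wells.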 It is filed as functional, cell-based. The conditions noted are these: Rattus norvegicus.
Test [4] can be described thus: microbe, parasite or virus in culture. It counts as functional. The conditions noted are these: Mycobacterium tuberculosis.
A short description of test [5]: C. albicans growth with fluconazole, confirmation, fluorescence, retest (AID 2467). It is filed as functional, cell-based.
Test [6] addresses Nucleotide-binding oligomerization domain-containing protein 2 (Homo sapiens, UniProt Q9HC29). The experiment in a line: NOD2 signaling inhibitors, cell-based, luminescence, uHTS, HEK293 (AID 1566). It is filed as functional.
For test [7], the system named is HEK293. The test is described as follows: NOD2 signaling inhibitors in MDP-stimulated cells, cell-based, uHTS, luminescence (AID 2001). It counts as functional. To be noted: Homo sapiens.
For test [8], the system named is HEK293. The experiment in a line: NOD1 signaling inhibitors, primary screen, cell-based, luminescence, uHTS (AID 1578). It counts as functional. The conditions noted are these: Homo sapiens.
A short description of test [9]: cytotoxicity toward NIH3T3 fibroblasts, dose response, counter-screen, cell-based, ATP luminescence, mouse fibroblasts (AID 2010).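 Also: cells exposed to compound for about 90 hours before reading.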 It counts as functional. Background: Counterscreens check selectivity or assay interference.
Test [10] concerns HEK293. The experiment in a line: cells. It is filed as functional, cell-based. To be noted: Homo sapiens. This is another data set of the same source.
Test [11] in a line: inhibitors of intracellular T. cruzi replication, confirmation, NIH3T3 host cells, beta-gal luminescence (AID 2044).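 Also: intracellular parasites grown in NIH/3T3 mouse fibroblasts as host cells; luminescent beta-galactosidase reporter signal from transgenic T. cruzi replicating inside host cells; inhibitors lower the luminescence signal.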 It counts as functional, cell-based.
Test [12] in a line: NIH-3T3 fibroblast cytotoxicity, dose response, cytotoxicity control, cell-based, fluorescence, Alamar Blue, secondary assay (AID 2327).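 Also: NIH-3T3 mouse fibroblasts cultured with fluconazole at 8 µg/mL.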 It is filed as functional.
Test [13] has as its target DNA dC->dU-editing enzyme APOBEC-3G (Homo sapiens, UniProt Q9HC16). The experiment in a line: Dose Response confirmation of small molecule APOBEC3G DNA Deaminase Inhibitors via a fluorescence-based single-stranded DNA deaminase assay. [Related pubchem assays (depositor defined):AID493012, AID493028]. It is filed as functional.
In test [14] the target is Glucose-6-phosphate 1-dehydrogenase (Homo sapiens, UniProt P11413). The test is described as follows: human G6PD enzyme inhibitors, dose response, selectivity assay for P. falciparum G6PD inhibitor project, biochemical, fluorescence (AID 504792). It counts as functional.
Test [15] has as its target T1, Mannose-6-phosphate isomerase (Homo sapiens, UniProt P34949).
T1 sequence (P34949 whole entry): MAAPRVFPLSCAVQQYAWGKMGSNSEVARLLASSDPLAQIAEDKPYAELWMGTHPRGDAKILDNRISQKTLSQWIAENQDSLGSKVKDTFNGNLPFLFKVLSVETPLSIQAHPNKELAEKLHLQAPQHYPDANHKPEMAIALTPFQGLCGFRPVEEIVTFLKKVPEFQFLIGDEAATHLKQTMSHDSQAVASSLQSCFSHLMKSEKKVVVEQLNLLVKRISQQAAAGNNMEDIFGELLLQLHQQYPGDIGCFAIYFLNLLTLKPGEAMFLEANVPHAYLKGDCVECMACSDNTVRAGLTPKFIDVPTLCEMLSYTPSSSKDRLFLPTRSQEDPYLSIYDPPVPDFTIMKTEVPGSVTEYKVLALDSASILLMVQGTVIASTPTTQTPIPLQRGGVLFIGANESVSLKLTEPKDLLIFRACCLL
The experiment in a line: PMI enzyme inhibitors, confirmation, biochemical, fluorescence intensity (AID 1535).

The target in test [16] is Phosphoethanolamine/phosphocholine phosphatase (Homo sapiens, UniProt Q8TCT1). The experiment in a line: SAR assay for compounds that inhibit PHOSPHO1. [Related pubchem assays (depositor defined):AID1545, AID1565, AID1574].
The next test addresses Phosphomannomutase 2 (Homo sapiens, UniProt O15305). The experiment in a line: Counter screen SAR assay for PMM2 inhibitors via a fluorescence intensity assay. [Related pubchem assays (depositor defined):AID1545, AID1574].
Test [17] addresses T2, Voltage-gated N-type calcium channel alpha-1B subunit/Amyloid beta A4 precursor protein-binding family A member 1 (Homo sapiens, UniProt Q00975+Q02410). The experiment in a line: disruptors of Mint-PDZ/N-type channel peptide interaction – biochemical, HTRF, set 2, SAR follow-up (AID 434980). It is filed as functional.
A further test has as its target SUMO E1/E2 (Homo sapiens, UniProt P63279+Q9UBE0+Q9UBT2). The test is described as follows: SAR analysis of SUMOylation using HTRF in an in-Vitro dose response assay. [Related pubchem assays (depositor defined):AID2006, AID2011, AID2018, AID2069, AID2658]. It is filed as functional. Background: TR-FRET usually uses a lanthanide donor and a delayed reading to cut background.

Test [18] addresses T2, Voltage-gated N-type calcium channel alpha-1B subunit/Amyloid beta A4 precursor protein-binding family A member 1. The experiment in a line: disruptors of Mint-PDZ/N-type channel peptide interaction – biochemical, HTRF, SAR follow-up (AID 2489). It is filed as functional.
The test system of test [19] is HEK293. The experiment in a line: cells. To be noted: Homo sapiens.
Test [20] deals with T3, Nucleotide-binding oligomerization domain-containing protein 1 (Homo sapiens, UniProt Q9Y239).
T3 sequence (Q9Y239 whole entry): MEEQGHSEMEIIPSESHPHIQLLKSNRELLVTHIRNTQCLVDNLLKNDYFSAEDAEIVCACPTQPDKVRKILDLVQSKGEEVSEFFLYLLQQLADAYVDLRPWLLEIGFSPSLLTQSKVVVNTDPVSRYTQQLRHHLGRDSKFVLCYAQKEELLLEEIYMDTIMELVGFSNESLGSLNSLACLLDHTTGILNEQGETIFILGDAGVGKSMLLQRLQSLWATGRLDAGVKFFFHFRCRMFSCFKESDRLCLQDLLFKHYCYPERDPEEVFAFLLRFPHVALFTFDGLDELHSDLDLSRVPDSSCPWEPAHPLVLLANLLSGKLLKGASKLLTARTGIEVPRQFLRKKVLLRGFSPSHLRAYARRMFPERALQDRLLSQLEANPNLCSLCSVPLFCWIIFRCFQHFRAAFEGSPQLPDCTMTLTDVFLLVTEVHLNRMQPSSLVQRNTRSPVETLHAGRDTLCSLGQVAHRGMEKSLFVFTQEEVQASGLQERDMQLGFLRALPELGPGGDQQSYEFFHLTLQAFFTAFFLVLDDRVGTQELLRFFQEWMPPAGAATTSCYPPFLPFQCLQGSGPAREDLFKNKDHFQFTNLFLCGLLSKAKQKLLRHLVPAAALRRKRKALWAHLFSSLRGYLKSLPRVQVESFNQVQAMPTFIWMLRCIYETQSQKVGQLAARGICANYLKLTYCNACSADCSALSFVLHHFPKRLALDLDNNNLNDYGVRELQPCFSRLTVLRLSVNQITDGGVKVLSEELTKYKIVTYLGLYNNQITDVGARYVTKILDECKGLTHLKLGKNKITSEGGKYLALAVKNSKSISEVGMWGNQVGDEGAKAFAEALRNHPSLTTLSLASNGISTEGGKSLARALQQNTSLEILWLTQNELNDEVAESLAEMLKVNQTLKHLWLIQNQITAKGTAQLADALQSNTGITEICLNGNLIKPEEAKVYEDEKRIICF
The experiment in a line: NOD1 signaling inhibitors, SAR follow-up, revised (AID 2333). It counts as functional.

The target in the next test is Tumor necrosis factor (Homo sapiens, UniProt P01375). The experiment in a line: TNFa-triggered NF-kB activation inhibitors, SAR follow-up, cell-based, revised (AID 2337). It is filed as functional.
Test [21] deals with Lysine-specific demethylase 4A (Homo sapiens, UniProt O75164). The experiment in a line: JMJD2A histone demethylase inhibitors, dose response, selectivity assay for GASC-1 inhibitor project, biochemical, DELFIA europium, cherry-picked samples (AID 488840).
Test [22] addresses Lysine-specific demethylase 4C (Homo sapiens, UniProt Q9H3R0). The test is described as follows: GASC-1 (JMJD2C) histone demethylase inhibitors, dose response, biochemical, DELFIA europium, cherry-picked samples (AID 488835). It is filed as functional.
Test [23] can be described thus: Luminescence Cell-Based Dose Confirmation HTS to Identify Inhibitors of Platelet Dense Granule Release. [Related pubchem assays: 1663 (Primary HTS), 1678 (Summary of Project)]. It is filed as functional.
Test [24] addresses Luciferin 4-monooxygenase (Photinus pyralis, UniProt P08659). The test is described as follows: firefly luciferase enzyme inhibitors, dose response, biochemical, luminescence (AID 1891).
Test [25] can be described thus: Luminescence Cell-Based/Microorganism Confirmation at Dose of Inhibitors of Trypanosoma cruzi Infection. [Related pubchem assays: 1885, 1968 ]. It is filed as functional.
A short description of test [26]: HepG2 cell cytotoxicity, dose response, cytotoxicity control for non-replicating M. tuberculosis project (AID 489018). It counts as functional. The conditions noted are these: Mycobacterium tuberculosis.
A short description of test [27]: Luminescence Cell-Based Secondary HTS screen to identify cytotoxic compounds of NIH3T3 cells. [Related pubchem assays: 1885, 1968 ]. It counts as functional.
The next test can be described thus: cells. It is filed as functional.
A short description of test [28]: inhibitors of Trypanosoma cruzi host-cell infection, confirmation, beta-gal luminescence, NIH3T3 host cells (AID 2630). It is filed as functional, cell-based. To be noted: Mus musculus.

Structures are written as SMILES. Calls of active or inactive are those of the source.

T2 sequence (Q00975 whole entry): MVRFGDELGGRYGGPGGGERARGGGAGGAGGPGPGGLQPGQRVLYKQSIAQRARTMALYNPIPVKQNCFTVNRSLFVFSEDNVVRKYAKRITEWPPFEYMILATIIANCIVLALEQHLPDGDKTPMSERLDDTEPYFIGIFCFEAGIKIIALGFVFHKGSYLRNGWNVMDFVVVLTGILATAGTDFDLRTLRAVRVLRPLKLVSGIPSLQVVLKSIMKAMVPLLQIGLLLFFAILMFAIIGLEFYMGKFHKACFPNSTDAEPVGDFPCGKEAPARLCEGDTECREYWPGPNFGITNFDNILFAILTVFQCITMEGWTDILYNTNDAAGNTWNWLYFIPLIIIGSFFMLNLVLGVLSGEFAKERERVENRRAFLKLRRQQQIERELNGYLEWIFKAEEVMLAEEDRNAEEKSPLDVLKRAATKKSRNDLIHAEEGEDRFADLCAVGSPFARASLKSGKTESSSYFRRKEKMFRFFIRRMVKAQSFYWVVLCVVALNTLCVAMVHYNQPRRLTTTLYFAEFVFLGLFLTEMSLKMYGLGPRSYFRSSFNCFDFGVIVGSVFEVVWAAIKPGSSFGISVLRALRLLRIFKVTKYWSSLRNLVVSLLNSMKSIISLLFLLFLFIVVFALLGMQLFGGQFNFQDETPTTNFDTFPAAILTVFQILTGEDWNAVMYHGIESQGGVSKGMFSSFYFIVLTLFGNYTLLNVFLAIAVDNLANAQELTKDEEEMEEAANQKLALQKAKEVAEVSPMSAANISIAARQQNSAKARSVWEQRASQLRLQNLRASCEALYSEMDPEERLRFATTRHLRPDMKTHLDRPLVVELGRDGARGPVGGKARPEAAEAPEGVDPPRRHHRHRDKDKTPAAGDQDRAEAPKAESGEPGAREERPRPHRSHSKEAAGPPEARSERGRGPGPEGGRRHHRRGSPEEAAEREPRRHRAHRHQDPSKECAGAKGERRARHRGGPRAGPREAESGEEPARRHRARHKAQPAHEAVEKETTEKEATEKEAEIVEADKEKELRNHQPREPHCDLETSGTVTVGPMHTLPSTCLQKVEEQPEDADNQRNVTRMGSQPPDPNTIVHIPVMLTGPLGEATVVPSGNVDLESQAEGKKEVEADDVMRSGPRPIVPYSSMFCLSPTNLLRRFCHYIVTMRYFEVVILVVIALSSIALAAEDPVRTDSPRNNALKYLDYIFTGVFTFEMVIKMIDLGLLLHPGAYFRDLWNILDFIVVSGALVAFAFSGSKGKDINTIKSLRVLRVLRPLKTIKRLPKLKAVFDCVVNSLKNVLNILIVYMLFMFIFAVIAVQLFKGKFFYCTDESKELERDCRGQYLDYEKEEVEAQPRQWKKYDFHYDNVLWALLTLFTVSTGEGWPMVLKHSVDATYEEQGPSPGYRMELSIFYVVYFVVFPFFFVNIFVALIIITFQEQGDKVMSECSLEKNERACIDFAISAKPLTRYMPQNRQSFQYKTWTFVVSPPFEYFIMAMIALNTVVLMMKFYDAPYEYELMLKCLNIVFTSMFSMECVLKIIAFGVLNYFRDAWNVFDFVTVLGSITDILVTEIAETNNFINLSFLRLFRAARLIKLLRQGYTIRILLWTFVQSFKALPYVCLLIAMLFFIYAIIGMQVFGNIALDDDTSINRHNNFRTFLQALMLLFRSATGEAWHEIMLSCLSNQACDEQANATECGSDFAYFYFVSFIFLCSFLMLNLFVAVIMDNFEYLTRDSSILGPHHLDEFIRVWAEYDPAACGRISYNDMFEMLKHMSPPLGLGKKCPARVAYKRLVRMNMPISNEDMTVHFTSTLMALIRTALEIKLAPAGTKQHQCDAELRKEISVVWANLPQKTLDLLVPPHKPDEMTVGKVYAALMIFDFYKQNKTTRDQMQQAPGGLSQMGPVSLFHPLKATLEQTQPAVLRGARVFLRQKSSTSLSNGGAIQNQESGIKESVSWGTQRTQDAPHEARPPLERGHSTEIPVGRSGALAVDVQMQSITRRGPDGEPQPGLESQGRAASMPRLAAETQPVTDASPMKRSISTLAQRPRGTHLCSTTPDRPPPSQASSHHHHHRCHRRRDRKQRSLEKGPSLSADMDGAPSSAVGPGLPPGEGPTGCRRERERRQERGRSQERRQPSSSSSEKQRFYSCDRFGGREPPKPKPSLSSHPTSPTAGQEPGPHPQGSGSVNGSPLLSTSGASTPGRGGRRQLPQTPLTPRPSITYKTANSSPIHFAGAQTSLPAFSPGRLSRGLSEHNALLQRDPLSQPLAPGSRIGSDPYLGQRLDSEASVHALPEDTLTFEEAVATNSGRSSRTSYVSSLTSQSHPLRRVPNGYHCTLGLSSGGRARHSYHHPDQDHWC
T2 sequence (Q02410 whole entry): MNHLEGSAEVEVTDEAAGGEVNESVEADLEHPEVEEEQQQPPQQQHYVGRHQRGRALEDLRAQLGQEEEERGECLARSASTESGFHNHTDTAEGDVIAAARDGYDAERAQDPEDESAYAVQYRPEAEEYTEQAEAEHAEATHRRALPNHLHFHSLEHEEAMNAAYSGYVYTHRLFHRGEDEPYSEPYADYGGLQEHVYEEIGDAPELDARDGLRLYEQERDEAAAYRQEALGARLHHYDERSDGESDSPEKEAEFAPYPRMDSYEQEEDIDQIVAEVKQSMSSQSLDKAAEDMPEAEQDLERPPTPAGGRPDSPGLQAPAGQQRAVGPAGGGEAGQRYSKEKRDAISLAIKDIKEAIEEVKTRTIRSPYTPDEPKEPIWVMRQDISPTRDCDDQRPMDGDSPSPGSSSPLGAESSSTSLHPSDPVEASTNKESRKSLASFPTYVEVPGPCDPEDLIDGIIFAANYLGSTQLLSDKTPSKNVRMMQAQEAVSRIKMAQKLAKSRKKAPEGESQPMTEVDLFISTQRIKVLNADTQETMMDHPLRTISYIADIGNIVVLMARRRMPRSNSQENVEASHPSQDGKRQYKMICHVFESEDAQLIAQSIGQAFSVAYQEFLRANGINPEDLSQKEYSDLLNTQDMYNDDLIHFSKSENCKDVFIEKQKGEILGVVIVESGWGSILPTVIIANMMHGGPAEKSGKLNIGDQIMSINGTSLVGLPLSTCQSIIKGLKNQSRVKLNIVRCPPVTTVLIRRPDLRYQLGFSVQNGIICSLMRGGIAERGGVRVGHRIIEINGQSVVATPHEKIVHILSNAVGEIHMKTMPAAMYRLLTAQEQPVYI
Chain of Phosphoethanolamine/phosphocholine phosphatase (Q8TCT1 whole entry): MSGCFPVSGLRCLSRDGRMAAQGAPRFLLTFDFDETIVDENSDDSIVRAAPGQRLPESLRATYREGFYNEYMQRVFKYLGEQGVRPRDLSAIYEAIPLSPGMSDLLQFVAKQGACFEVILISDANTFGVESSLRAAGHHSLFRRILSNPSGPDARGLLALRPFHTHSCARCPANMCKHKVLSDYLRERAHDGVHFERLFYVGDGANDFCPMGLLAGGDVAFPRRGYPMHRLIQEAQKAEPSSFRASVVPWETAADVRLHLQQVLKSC
Chain of Phosphomannomutase 2 (O15305 whole entry): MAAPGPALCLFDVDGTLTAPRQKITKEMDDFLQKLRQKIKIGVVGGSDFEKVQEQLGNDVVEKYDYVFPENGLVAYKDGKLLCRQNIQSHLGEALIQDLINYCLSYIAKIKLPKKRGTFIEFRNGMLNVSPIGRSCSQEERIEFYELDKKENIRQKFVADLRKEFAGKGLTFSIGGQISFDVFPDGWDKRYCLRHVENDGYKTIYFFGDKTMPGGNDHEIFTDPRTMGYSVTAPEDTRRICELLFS
Chain of SUMO E1/E2 (Q9UBE0 whole entry): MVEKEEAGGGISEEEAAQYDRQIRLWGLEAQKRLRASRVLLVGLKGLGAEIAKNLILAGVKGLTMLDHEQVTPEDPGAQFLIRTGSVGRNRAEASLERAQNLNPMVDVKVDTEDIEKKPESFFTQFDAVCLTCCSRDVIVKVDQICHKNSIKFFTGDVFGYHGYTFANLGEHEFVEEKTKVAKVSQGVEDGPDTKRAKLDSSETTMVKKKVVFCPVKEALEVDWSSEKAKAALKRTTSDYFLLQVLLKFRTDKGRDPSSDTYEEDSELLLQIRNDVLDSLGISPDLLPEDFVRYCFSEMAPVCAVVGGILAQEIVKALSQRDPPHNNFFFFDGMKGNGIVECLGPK
Chain of SUMO E1/E2 (Q9UBT2 whole entry): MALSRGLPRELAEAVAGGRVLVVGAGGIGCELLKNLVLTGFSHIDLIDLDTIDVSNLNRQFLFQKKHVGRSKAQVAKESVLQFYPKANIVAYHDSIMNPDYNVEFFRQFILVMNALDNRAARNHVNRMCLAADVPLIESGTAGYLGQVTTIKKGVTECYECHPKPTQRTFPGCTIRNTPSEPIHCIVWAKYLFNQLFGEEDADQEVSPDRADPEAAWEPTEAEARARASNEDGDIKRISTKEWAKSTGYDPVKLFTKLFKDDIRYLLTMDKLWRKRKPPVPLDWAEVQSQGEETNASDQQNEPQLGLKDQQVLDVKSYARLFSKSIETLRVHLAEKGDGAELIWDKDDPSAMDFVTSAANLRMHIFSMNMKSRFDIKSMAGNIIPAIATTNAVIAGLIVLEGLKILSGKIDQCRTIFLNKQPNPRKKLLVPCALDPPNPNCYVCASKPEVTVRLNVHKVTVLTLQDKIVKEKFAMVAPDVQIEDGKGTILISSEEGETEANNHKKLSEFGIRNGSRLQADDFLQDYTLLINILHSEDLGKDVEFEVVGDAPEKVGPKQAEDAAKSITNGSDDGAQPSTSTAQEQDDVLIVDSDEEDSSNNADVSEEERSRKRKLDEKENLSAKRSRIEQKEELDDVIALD
Chain of SUMO E1/E2 (P63279 whole entry): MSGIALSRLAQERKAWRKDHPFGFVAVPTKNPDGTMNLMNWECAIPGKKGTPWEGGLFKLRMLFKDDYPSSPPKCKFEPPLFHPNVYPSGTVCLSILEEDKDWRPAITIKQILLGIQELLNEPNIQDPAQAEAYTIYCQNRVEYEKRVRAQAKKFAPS

As a reminder, the IC50 is the point on the concentration scale where inhibition reaches its midpoint. As usually defined, the AC50 is the midpoint of the concentration-response curve, whichever way the signal moves. What is called EC50 is the concentration at which the effect is half-maximal. As for `Cc1ccc2c(c1)c(/C=C/c1cc[n+](C)cc1)c(C)n2C`, the IC50 is 18 µM (active) with HEK293 [1]; > 20 µM (inactive) in the test on HEK293 [2]; 0.462 µM (active) in [3]; 14.7 µM (inactive) with HEK293 [7]; > 20 µM (inactive) in the test with HEK293 [10]. The AC50 in the test with INS1 was 3.46 µM (active). Also, in test [4], the CC50 is > 40 µM (active). Moreover, the EC50 in [5] is 0.59 µM (active); in test [6], 4.42 µM (active); in the test on HEK293 [8], 17.3 µM (active); in [9], > 60 µM (not active); in [11], 0.294 µM (active); in [12], > 160 µM (inactive).

Regarding `O=c1c2ccccc2sn1-c1ccc(S(=O)(=O)N2CCCCC2)cc1`, the IC50 is 19.4 µM (active) in test [13]; > 80 µM (inactive) in [14]; > 50 µM (inactive) in [15]; 38.9 µM (inactive) in test [16]; > 100 µM (inactive) at Phosphomannomutase 2.

For `COc1ccc(CNC(=O)C(C)OC(=O)c2cc(-c3ccco3)nc3ccccc23)cc1` (stereo not given), the IC50 in test [17] is 8.2 µM (active); at SUMO E1/E2, 7.68 µM (active); in test [18], 17.5 µM (active).

Consider `CCC(=O)N1c2ccc(S(=O)(=O)N3CCN(c4ccc(Cl)cc4)CC3)cc2CC1C` (stereo not given), for which the IC50 with HEK293 [19] was 6.8 µM (active); in [20], 1.01 µM (active); at Tumor necrosis factor, 0.584 µM (active).

For `O=C1NC(=O)C(=NNC(=O)C2COc3ccccc3O2)C(=O)N1` (stereo not given), the AC50 was 11.7 µM (active) in [21] and 2.66 µM (active) in test [22].

Turning to `OC(COc1ccc2ccccc2c1Br)Cn1ccnc1` (stereo not given), the EC50 is > 112 µM (not active) in test [23]; > 112 µM (not active) in test [24]; 2.07 µM (active) in [25]; > 60 µM (not active) in test [9]; > 195 µM (not active) in test [27]; 0.501 µM (active) in [11]. Besides, in test [28], the EC50 was 2.07 µM (active). Further, the CC50 in [26] is > 20 µM (active). The IC50 in the test “cells” was 14.3 µM (active).
